Assay results taken from patent publication US20260108584A1, “TREATMENT OF OBESITY-ASSOCIATED INFLAMMATORY CONDITIONS” (THE UNIVERSITY OF BIRMINGHAM, priority 2023, published 2026).

Key:
[1] = Therapeutic PEPITEM (last 6 of 12 weeks HFD): body weight and IPGTT; type: in vivo, C57BI/6J wild type (WT) mice
Description: (§1) Eight-week-old, male, C57BI/6J wild type (WT) mice were purchased from Charles River and were maintained in a specific pathogen free facility, with free access to food. Environmental conditions were: 21±2° C., 55±10% relative humidity and a 12 hour light-dark cycle. Mice were fed high fat diet (HFD) containing 60% fat (cat no. D12492, Research Diets, INC) for up to 12 weeks. Alzet mini pumps 2006 (Charles River) containing 3.5 mg/ml of PEPITEM (SVTEQGAELSNEER-PEG (352)-Amide; Cambridge Research Biochemicals Limited; Cambridge, UK) or phosphate buffered saline (PBS) were implanted at baseline (prophylactic administration) or following 6 weeks of HFD (therapeutic administration), continuously releasing 0.822 mg of content/week. Body weight was assessed weekly. Intraperitoneal glucose tolerance tests (IPGTT) were assessed at 3, 6, 8, and 12 weeks in mmol/l using Contour XT glucometer as described in Nasteska, D. et al., JCI Insight 6, doi: 10.1172/jci.insight. 140288 (2021). Mice were culled […] blood collected into ethylenediaminetetraacetic acid (EDTA) coated eppendorfs^RTM. The peritoneal cavity was lavaged with 5 mM EDTA, spleen and inguinal lymph nodes were isolated and stored in PBS. Gonadal visceral fat pads and abdominal subcutaneous fat was stored in RPMI 1640 media (Gibco) containing 2% BSA and pancreas was FFPE as described in Nasteska, D. et al (supra).

[2] = test system: J774 murine macrophages cells; experiment: In vitro cytokine analysis, LPS-stimulated J774 cells (ELISA); type: cell-based; details: 10 ng ml^−1 PEPITEM 15 minutes pre-treatment, LPS (10 μg ml^−1) 24 h, vs PBS (FIG. 7)
Description: J774 murine macrophages cells were pre-treated with 10 ng ml^−1 PEPITEM (SVTEQGAELSNEER; Cambridge Research Biochemicals Limited; Cambridge, UK) or phosphate buffered saline (PBS—as control) for 15 minutes and then stimulated with LPS (10 μg ml^−1) for 24 h. Cell supernatants were collected and analysed for the protein expression of IL-6 and TNF-α by ELISA.

leukocyte trafficking [3] = experiment: Therapeutic PEPITEM (last 6 of 12 weeks HFD): leukocyte subsets by flow cytometry; type: in vivo, C57BI/6J wild type (WT) mice
Description: as §1
(§2) All tissue samples were weighed prior to processing. Fat tissue was broken into pieces, incubated in an enzyme cocktail consisting of 200 μg/ml Collagenase P (Sigma), 800 μg/ml Collagenase Dispase, 100 μg/ml DNase (both Merck) diluted in Roswell Park Memorial Institute medium (RPMI) containing 2% fetal bovine serum (FBS) at 37° C. for 30 min before being passed through 70 UM filter. Samples were washed by centrifugation in RPMI containing 2% FBS at 400 g (g-force) for 10 minutes and the stromal vascular fraction re-suspended in red blood cell (RBC) lysis buffer for 10 minutes. Samples were then washed by centrifugation at 400 g and re-suspended in RPMI containing 2% FBS. The spleen and lymph node were crushed through a […] filter. Spleen, lymph node and blood samples were all incubated in the RBC lysis buffer as described prior to re-suspension in magnetic-activated cell sorting (MACS) buffer. Peritoneal lavage fluid (PLF) were centrifuged at 400 g for 5 minutes and the cells were resuspended in MACS buffer.
(§3) All samples were blocked with Fc receptor (FcR) blocker (Miltenyi Biotec) prior to staining with the following of antibodies and Zombie Aqua (Biolegend) for 20 minutes at 4° C. prior to washing and fixation with 2% paraformaldehyde (PFA): anti-CD45.2 BV605 (clone 104; Biolegend), anti-CD3 PECy7 (clone 145-2c11), anti-CD4 eFluor450 (clone GK1.5), anti-CD8 PE-TexasRed ^RTM (clone 5H10), anti-CD44 FITC (clone IM7), anti-CD25 AF700 (clone PC61.5), anti-KLRG1 APC-eFluor780 (clone 2F1), anti-CD62L PE (clone MEL-14), anti-CD19-APC (clone 1D3), anti-CD45 APC-CY7 (clone 104), F4/80 FITC (clone BM8), anti-CD11c PE-Cy7 (clone N418), anti-Gp38 PE (clone 8.1.1; all from Thermofisher); anti-CD23 BV421 (clone B3B4), anti-CD93 BV650 (clone AA4.1), anti-CD43 PerCp-Cy5.5 (clone S7), anti-CD21/35 PE (clone 7G6), anti-Siglec F TexasRed^RTM (clone E50-2440), Ly6G APC (clone 1A8; all from BD). Compensation controls were generated using the cells isolated from the spleen. Immediately prior to analysis CountBright beads (Invitrogen) were added and samples were acquired using Fortessa-X20 and data analysed offline using FlowJo^RTM (V-10.2.6) (FIG. 4).

pancreatic islets [4] = experiment: Therapeutic PEPITEM (last 6 of 12 weeks HFD): pancreatic islet immunofluorescence imaging; type: in vivo, C57BI/6J wild type (WT) mice
Description: (§4) Eight-week-old, male, C57BI/6J wild type (WT) mice were purchased from Charles River and were maintained in a specific pathogen free facility, with free access to food. Environmental conditions were: 21±2° C., 55±10% relative humidity and a 12 hour light-dark cycle. Mice were fed high fat diet (HFD) containing 60% fat (cat no. D12492, Research Diets, INC) for up to 12 weeks. […] Body weight was assessed weekly. Intraperitoneal glucose tolerance tests (IPGTT) were assessed at 3, 6, 8, and 12 weeks in mmol/l using Contour XT glucometer as described in Nasteska, D. et al., JCI Insight 6, doi: 10.1172/jci.insight. […]
(§5) Slides were imaged using Zeiss Axioscan 7 Slide Scanner at 20× magnification using the same acquisition parameters for each slide. Images were initially processed with ZEN Software (Black Edition v2.2) into digital arrays, which were subsequently analysed with ImageJ (1.53K). […] Average number of islets and islet area were determined and expressed as number or area/10,000 μm^2 of the whole pancreatic section area, as previously described by Slavin, B et al., Anat. […]

pancreatic islets [5] = experiment: Prophylactic PEPITEM, 6 weeks HFD: pancreatic islet immunofluorescence imaging; type: in vivo, C57BI/6J wild type (WT) mice
Description: as §4, §5

[6] = Prophylactic PEPITEM, 6 weeks HFD: body weight and IPGTT; type: in vivo, C57BI/6J wild type (WT) mice
Description: as §1

leukocyte trafficking [7] = experiment: Prophylactic PEPITEM, 6 weeks HFD: leukocyte subsets by flow cytometry; type: in vivo, C57BI/6J wild type (WT) mice
Description: as §1, §2, §3

PEPITEM [SVTEQGAELSNEER, 14-amino-acid immunopeptide derived from 14.3.3.ζδ]
glucose tolerance ([1]; 8 or 12 weeks of diet, therapeutic (FIG. 5(D))): no effect | weight of the mouse ([1]; 12 weeks HFD, therapeutic (FIG. 5(C))): no effect | amount of IL-6 secreted [2]: significant reduction | amount of TNFalpha secreted [2]: significant reduction | CD3+KLRG1+ T-cells numbers in the peritoneal cavity (leukocyte trafficking [3]; therapeutic (FIG. 2(H))): no effect | number of CD3+KLRG1+ T-cells in the blood (leukocyte trafficking [3]; therapeutic (FIG. 2(I))): lower | number of age-associated B-cells in the blood (leukocyte trafficking [3]; therapeutic (FIG. 2(J))): lower | number of neutrophils in the blood (leukocyte trafficking [3]; therapeutic (FIG. 2(K))): lower | composition of leukocyte subsets in subcutaneous adipose tissue (leukocyte trafficking [3]; therapeutic (data not shown)): no effect | B-cell numbers in the spleen (leukocyte trafficking [3]; therapeutic, vs PBS (FIG. 3(E))): elevated | age-associated B-cell numbers in the spleen (leukocyte trafficking [3]; therapeutic, vs PBS (FIG. 3(F))): elevated | number of CD45+ leukocytes in the spleen (leukocyte trafficking [3]; therapeutic, vs control animals (FIG. 3(A))): increased | number of CD3+ T-cells in the spleen (leukocyte trafficking [3]; therapeutic, vs control animals (FIG. 3(B))): increased | number of CD45+ leukocytes in the inguinal lymph node (leukocyte trafficking [3]; therapeutic, vs control animals (FIG. 3(C))): increased | number of CD3+ T-cells in the inguinal lymph node (leukocyte trafficking [3]; therapeutic, vs control animals (FIG. 3(D))): increased | number of CD3+ T-cells in the VAT (leukocyte trafficking [3]; therapeutic, vs vehicle control (FIG. 2(D))): significant reduction | number of CD4+ T-cells in the VAT (leukocyte trafficking [3]; therapeutic, vs vehicle control (FIG. 2(E))): significant reduction | number of CD3+KLRG1+ T-cells in the VAT (leukocyte trafficking [3]; therapeutic, vs vehicle control (FIG. 2(F))): significant reduction | macrophage numbers in the peritoneal cavity (leukocyte trafficking [3]; therapeutic, vs vehicle control (FIG. 2(G))): significant reduction | overall number of islets (pancreatic islets [4]; vs control mice (FIG. 2(B))): without affecting | pancreatic islet size (pancreatic islets [4]; vs control mice (FIG. 2(C))): significantly reduced | number of pancreatic islets (pancreatic islets [5]; vs PBS (FIG. 1(C))): no effect | individual area of pancreatic islets (pancreatic islets [5]; vs PBS (FIG. 1(D))): significantly reduced | body weight ([6]; 6 weeks HFD, prophylactic mini pump, vs PBS (FIG. 5(A))): unaffected | fasting glucose tolerance or insulin resistance ([6]; week 3 or 6 of HFD, prophylactic, vs PBS (FIG. 5(B))): no effect | number of T-cell subsets, B-cell subsets, neutrophils, eosinophils or macrophages in the blood, inguinal lymph node or spleen (leukocyte trafficking [7]; 6 weeks HFD, prophylactic (FIG. 6)): no effect | T-cells (CD3+) in visceral adipose tissue (leukocyte trafficking [7]; 6 weeks HFD, prophylactic, vs HFD control (FIG. 1(E))): Significantly fewer | CD4+ T cells in visceral adipose tissue (leukocyte trafficking [7]; 6 weeks HFD, prophylactic, vs HFD control (FIG. 1(F))): Significantly fewer | KLRG1+CD3+ T-cells in visceral adipose tissue (leukocyte trafficking [7]; 6 weeks HFD, prophylactic, vs HFD control (FIG. 1(G))): Significantly fewer | T-cells (CD3+) in peritoneal cavity (leukocyte trafficking [7]; 6 weeks HFD, prophylactic, vs HFD control (FIG. 1(H))): Significantly fewer | KLRG1+CD3+ T-cells in peritoneal cavity (leukocyte trafficking [7]; 6 weeks HFD, prophylactic, vs HFD control (FIG. 1(I))): Significantly fewer | macrophages within the peritoneal cavity (leukocyte trafficking [7]; 6 weeks HFD, prophylactic, vs PBS (FIG. 1(J)), back to levels of chow-fed mice): significant reduction | absolute numbers of macrophages in the VAT (leukocyte trafficking [7]; HFD-fed mice, model (6 or 12 weeks) not specified): did not influence
